Laboratory results taken from ChEMBL document CHEMBL3832035, “DailyMed|setid=5c133dfe-3cb5-426b-ac30-daf814e12c47 | FAMCICLOVIR - famciclovir tablet, film coated|Golden State Medical Supply, Inc”.
Values joined by “and” are separate entries in the source; they are usually repeats but may differ in a detail not shown here. Equal values may be shown once.

Test system: Homo sapiens
Experiment: Mean pharmacokinetic parameters for Penciclovir following single dose oral or IV administration of […] to healthy adult subjects and patients with different degrees of renal impairment.
Type: ADME, organism-based
Design: dose 1000 mg, dose 250 mg, dose 125 mg, dose 500 mg, route oral
Conditions: in vivo, regimen Single dose; for Excretion: tissue Urine
[1] = iv, dosed compound id 4, dosed compound name PENCICLOVIR, gender male, tissue Plasma
[2] = po, dose 500 mg, dosed compound id 40, dosed compound name FAMCICLOVIR, gender male, tissue Plasma

Excretion (iv, 5 mg/kg, dosed compound id 4, dosed compound name PENCICLOVIR, gender male, study dosing duration 24 hours): 91% | F (iv, at 400 mg, dosed compound id 4, dosed compound name PENCICLOVIR, gender male, route oral, tissue Plasma): 77% | Vd_beta (iv, dose 400 mg, dosed compound id 4, dosed compound name PENCICLOVIR, gender male, tissue Plasma): 1.08 L/kg | CL [1]: 36.6 L/h | t1/2 [1]: 2 h | Excretion (po, at 500 mg, dosed compound id 40, dosed compound name FAMCICLOVIR, gender male, study dosing duration 72 hours): 82% | CL_renal (po, dose 500 mg, dosed compound id 40, dosed compound name FAMCICLOVIR, gender female, tissue Plasma): 21.8 L/h | CL_renal [2]: 28.5 L/h and 27.7 L/h | Tmax [2]: 0.9 h | t1/2 [2]: 2.3 h | AUC (po, dosed compound id 40, dosed compound name FAMCICLOVIR, gender female, tissue Plasma): 11.1 µg·h/mL | AUC (po, dosed compound id 40, dosed compound name FAMCICLOVIR, gender male, tissue Plasma): 9.3 µg·h/mL
SMILES: Nc1nc2c(ncn2CCC(CO)CO)c(=O)[nH]1 [PENCICLOVIR]
